The structures appear in SMILES notation.

These results are taken from patent publication US7019034B2, “Compositions and methods for reducing serum glucose and triglyceride levels in diabetic mammals” (Allergan, Inc., priority 2003, dated 2006).

Experiment [1] concerns the target T1, RARγ (Homo sapiens, UniProt P13631).
T1 sequence (P13631 1-454): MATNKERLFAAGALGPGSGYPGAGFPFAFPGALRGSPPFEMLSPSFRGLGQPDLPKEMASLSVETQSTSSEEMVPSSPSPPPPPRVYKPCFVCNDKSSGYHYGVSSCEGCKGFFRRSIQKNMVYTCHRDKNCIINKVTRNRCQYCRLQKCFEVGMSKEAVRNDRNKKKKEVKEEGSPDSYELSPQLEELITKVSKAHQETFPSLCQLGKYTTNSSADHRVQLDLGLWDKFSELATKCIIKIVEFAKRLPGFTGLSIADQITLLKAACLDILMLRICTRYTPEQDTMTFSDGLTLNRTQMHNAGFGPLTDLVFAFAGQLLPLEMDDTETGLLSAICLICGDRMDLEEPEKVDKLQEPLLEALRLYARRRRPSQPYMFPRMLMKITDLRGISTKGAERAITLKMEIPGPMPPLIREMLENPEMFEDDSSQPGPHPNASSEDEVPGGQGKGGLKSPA
In words: ligand binding assay, RARγ. The conditions noted are these: read-out: RAR Bind. Ki γ. From the text: (§1) A holoreceptor transactivation assay and a ligand binding assay which measure the antagonist/agonist like activity of the compounds of the invention, or their ability to bind to the several retinoid receptor subtypes, respectively, are described in published PCT Application No. WO WO93/11755 (particularly on pages 30–33 and 37–41) published on Jun. 24, 1993, the specification of which is also incorporated herein by reference. […] The results obtained in this assay are expressed in EC50 numbers, as they are also in the chimeric receptor transactivation assay. The results of the ligand binding assay are expressed in Ki numbers. (See Cheng et al. Biochemical Pharmacology Vol. 22 pp 3099–3108, expressly incorporated herein by reference.)
(§2) In Table 1 NA stands for not active at all as an agonist. ND stands for not determined. The first row of numbers pertaining to each compound is the measured EC50 number. […] The third row of numbers pertaining to each compound is the binding Ki number.

Experiment [2] deals with T2, RARγ (Homo sapiens, UniProt P13631).
T2 sequence (P13631 185-419 limits assumed): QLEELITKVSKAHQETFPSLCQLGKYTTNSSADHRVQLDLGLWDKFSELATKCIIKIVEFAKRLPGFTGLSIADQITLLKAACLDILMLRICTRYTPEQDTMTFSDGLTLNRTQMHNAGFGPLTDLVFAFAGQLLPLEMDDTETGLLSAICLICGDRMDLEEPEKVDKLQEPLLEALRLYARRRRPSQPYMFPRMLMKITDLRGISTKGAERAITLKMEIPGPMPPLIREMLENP
In words: chimeric receptor transactivation assay, RARγ. Format: cell-based.
From the text: The specification of U.S. Pat. No. 5,455,265 is hereby expressly incorporated by reference.
Table 1 discloses the activity of certain exemplary compounds of the invention in the above-described receptor transactivation and binding assays. Particularly, the transactivation data pertaining to activation of the RAR receptors were obtained in the chimeric assay, and the transactivation data pertaining to the activation of RXR receptors were obtained in the holoreceptor assay.
Efficacy in a transactivation assay is expressed as a percentage of the maximum potency attained by the compound compared to a standard which, in this case, is the compound named (2E,4E,1′S,2′S)-3-methyl-5-[2′-methyl-2′-(5,5,8,8-tetramethyl-5,6,7,8-tetrahydro-naphthalen-2-yl)-cyclopropyl]-penta-2,4-dienoic acid.
as §2

A further experiment concerns the target T3, RXRβ (UniProt P28704).
T3 sequence (P28704 1-520): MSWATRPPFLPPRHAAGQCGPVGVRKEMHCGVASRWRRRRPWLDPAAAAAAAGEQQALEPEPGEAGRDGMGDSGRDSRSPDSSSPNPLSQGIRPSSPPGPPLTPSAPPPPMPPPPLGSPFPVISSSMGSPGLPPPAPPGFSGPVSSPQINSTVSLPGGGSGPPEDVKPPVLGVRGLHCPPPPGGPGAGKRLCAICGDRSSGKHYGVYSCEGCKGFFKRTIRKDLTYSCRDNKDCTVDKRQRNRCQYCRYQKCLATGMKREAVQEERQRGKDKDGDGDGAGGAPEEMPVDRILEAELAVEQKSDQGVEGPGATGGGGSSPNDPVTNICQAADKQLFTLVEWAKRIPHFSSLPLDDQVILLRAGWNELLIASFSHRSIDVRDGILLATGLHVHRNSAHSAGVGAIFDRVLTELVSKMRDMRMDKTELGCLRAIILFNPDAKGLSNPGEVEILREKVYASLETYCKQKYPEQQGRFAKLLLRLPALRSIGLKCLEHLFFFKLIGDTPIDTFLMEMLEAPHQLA
As to the kind of experiment: holoreceptor transactivation assay, RXRβ. Format: cell-based. The conditions noted are these: for RXR β efficacy in percentage as compared to the standard compound / EC50: holoreceptor assay; for RXR β efficacy in percentage as compared to the standard compound: number in brackets; for EC50: read-out: RXR Trans. EC50 β; for efficacy in activating RXRβ compared with RXRα and RXRγ subtypes (in words): transactivation, Table 1.
From the text: The results obtained in this assay are expressed in EC50 numbers, as they are also in the chimeric receptor transactivation assay. The results of the ligand binding assay are expressed in Ki numbers.
(§3) Particularly, the transactivation data pertaining to activation of the RAR receptors were obtained in the chimeric assay, and the transactivation data pertaining to the activation of RXR receptors were obtained in the holoreceptor assay.
as §2

The next experiment deals with T4, RXRα (Homo sapiens, UniProt P19793).
T4 construct: expressed in transfected cells
T4 sequence (P19793 1-462): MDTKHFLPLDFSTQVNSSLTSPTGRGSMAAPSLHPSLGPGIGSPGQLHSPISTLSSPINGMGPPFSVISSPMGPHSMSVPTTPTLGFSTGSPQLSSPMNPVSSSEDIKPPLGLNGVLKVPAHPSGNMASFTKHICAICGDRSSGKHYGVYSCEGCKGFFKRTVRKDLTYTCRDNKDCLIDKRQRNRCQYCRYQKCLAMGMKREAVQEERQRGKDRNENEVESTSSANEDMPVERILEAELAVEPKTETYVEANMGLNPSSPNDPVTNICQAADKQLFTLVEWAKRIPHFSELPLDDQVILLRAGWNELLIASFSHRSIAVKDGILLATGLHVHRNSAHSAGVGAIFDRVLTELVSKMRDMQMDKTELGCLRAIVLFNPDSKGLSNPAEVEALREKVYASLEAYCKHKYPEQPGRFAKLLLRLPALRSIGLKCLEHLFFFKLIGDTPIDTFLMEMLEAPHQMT
As to the kind of experiment: holoreceptor transactivation assay, RXRα. Format: cell-based.
From the text: as §1, §3, §2

By Ki is commonly meant a measure of affinity in units of concentration, obtained from inhibition or displacement. As usually defined, the EC50 is the concentration at which the effect is half-maximal. `CCCOc1cc2c(cc1\C(C)=C(F)/C=C/C(C)=C/C(=O)O)C(C)(C)CCC2(C)C` [Compound 4]: the Ki at RARγ [1] came out at 720 nM. The EC50 at RARγ [2] (NA = not active at all as an agonist, read-out: RAR Trans. EC50 γ) is > 1000 nM. In addition, the “RAR γ efficacy in percentage as compared to the standard compound” value on RARγ [2] (number in brackets) turned out to be 15%. Also, on RXRβ, the “RXR β efficacy in percentage as compared to the standard compound” value was 24%; the EC50 is 62 nM; the “efficacy in activating RXRβ compared with RXRα and RXRγ subtypes (in words)” value was “significantly more effective in activating the RXRβ subtype”.
As to `CCOc1cc2c(cc1\C(CC)=C(F)/C=C/C(C)=C/C(=O)O)C(C)(C)CCC2(C)C` [Compound 2, (2E,4E,6E)-7-(3-Ethoxy-5,5,8,8-tetramethyl-5,6,7,8-tetrahydronaphthalen-2-yl)-6-fluoro-3-methylnona-2,4,6-trienoic acid], on RARγ [1], the Ki worked out at 1510 nM. Besides, the EC50 at RXRα (NA = not active at all as an agonist, read-out: RXR Trans. EC50 α) is 0.8 nM. The “RXR α efficacy in percentage as compared to the standard compound” value on RXRα (number in brackets) is on record as 17%. On RXRβ, the “RXR β efficacy in percentage as compared to the standard compound” value came out at 46%; the EC50 was determined as 36 nM; the “efficacy in activating RXRβ compared with RXRα and RXRγ subtypes (in words)” value is recorded as “significantly more effective in activating the RXRβ subtype”.
